According to patent US20240059693A1, “FUSED BICYCLIC PYRAZOLE DERIVATIVES AND METHODS OF USE THEREOF FOR THE TREATMENT OF HERPESVIRUSES” (Merck Sharp & Dohme LLC, priority 2020, published 2024):
pEC50, pIC50: −log10 of the molar value. Read-outs that look alike come from different tables or passages of the source.

Key:
[1] = biological target: T1, varicella zoster virus DNA polymerase (Varicella-zoster virus, UniProt P09252); experiment: VZV polymerase assay (AlphaLISA); format: biochemical; conditions: VZV DNA polymerase 0.4 nM, 60 minutes at 37° C.
T1 construct: made in house; host or cells: SF21 insect cells (baculovirus vector)
Experimental: Human cytomegalovirus and varicella zoster virus DNA polymerases were expressed via baculovirus vector in SF21 cells and purified. Heterodimeric nucleic acid substrate used in the herpesvirus polymerase reactions was generated by annealing a 59-mer template to a 17-mer digoxigenin-labeled primer. Polymerase (HCMV final concentration of 0.2 nM; VZV final concentration of 0.4 nM) was combined with an inhibitor compound or DMSO in assay buffer (10 mM HEPES, pH 7.5, 25 mM KCl, 25 mM NaCl, 5 mM MgCl2, 5% glycerol, 0.67 mg/ml bovine serum albuminutes, and 1 mM tris(2-carboxyethyl)phosphine), and this mixture was pre-incubated for 30 minutes at room temperature in 384-well microtiter plates. The polymerization reaction was initiated by the addition of template/primer substrate (final concentration: 1.6 nM), and dNTPs (final concentration: 24 nM dCTP, 24 nMdGTP, 16 nM dATP, 16 nM dTTP, and 0.8 nM biotin-dUTP). After 60 minutes incubation at 37° C., reactions were terminated with quench buffer (25 mM HEPES pH 7.5, 100 mM NaCl, 0.25% Tween-20, 12 mM EDTA, and 1 mg/ml bovine serum albumin). Incorporation of biotinylated UTP was detected with 2.5-ug/ml anti-DIG AlphaLISA acceptor beads and 5-10 ug/ml streptavidin AlphaLISA donor beads (Perkin Elmer). Compound effects were normalized to the window defined by the controls (DMSO only and pre-quenched wells) and were fit using a 4-parameter algorithm to report an IC50.

[2] = test system: HSV2; experiment: Viral qPCR assay, HSV2 in Vero cells; format: cell-based, Herpes Simplex Virus type 2; conditions: read-out: HSV2 VERO Cell (EC50)
Experimental: (§1) MRCS cells, Vero cells, and MeWo cells were obtained from ATCC and were maintained at 37° C./5% CO2/90% relative humidity in Minimal Essential Medium with 10% fetal bovine serum, […] L-glutamine, 100 units/ml penicillin and 100 ug/ml streptomycin. Assay plates were prepared by dispensing compounds dissolved in DMSO into wells of 384 well collagen-coated plates using an ECHO acoustic dispenser. Each compound was tested in a 10-point, serial 3-fold dilution. Controls included uninfected cells and infected cells treated only with DMSO. Assays were initiated by mixing selected cells, in suspension, with virus, and dispensing 50 μl/well infected cells to pre-plated compounds. Plates were incubated at 37° C./5% CO2/90% relative humidity for ˜72 hrs to permit genomic replication, and infected cells were lysed by the addition of an equal volume of lysis buffer (10 mM Tris-HCl, pH8, 50 mM KCl, 2 mM MgCl2, 0.45% NP-40, 0.45% Tween-20, and 100 μg/ml proteinase K). An aliquot of the lysate was transferred to a 384-well PCR plate and incubated at 56° C. for 1 hour and then at 95° C. for 10 min. Levels of a viral gene and of the cellular control, PPIA (Thermo Fisher Assay ID=Hs04194521_s1), were measured in separate 10 μL qPCR assays using TaqMan® Gene Expression Master Mix (Applied Biosystems), and an 7900HT Fast Real-Time PCR System with 384-Well Block Module. 7-point, serial 10-fold dilutions of a plasmid standard were run on each plate to generate a standard curve, and genome copies numbers were calculated by plotting experimental Ct onto linear regression of the standard curve. Viral genome copy numbers were normalized by cellular control copy number, and compound effects were normalized to the window defined by the controls. Calculated % effects were fit using a 4-parameter algorithm, and EC50 was reported.
as §1, with “gene” for “gene and of the cellular control, PPIA (Thermo Fisher Assay ID=Hs04194521_s1),”, “in” for “in separate”, “Compound effects on viral” for “Viral”, “number” for “numbers were normalized by cellular control copy number, and compound effects”

[3] = biological target: T2, Human cytomegalovirus DNA polymerase (Human cytomegalovirus, UniProt P08546); experiment: HCMV polymerase assay (AlphaLISA); format: biochemical; conditions: HCMV DNA polymerase 0.2 nM, 60 minutes at 37° C.; read-out: CMV (IC50)
T2 construct: made in house; host or cells: SF21 insect cells (baculovirus vector)
How it was run: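 Baculovirus/SF21-expressed polymerase (HCMV 0.2 nM; VZV 0.4 nM) pre-incubated 30 min at room temperature with compound in HEPES pH 7.5 buffer, then 60 min at 37 °C with 1.6 nM DIG-primer/template, sub-nM to 24 nM dNTPs and 0.8 nM biotin-dUTP. AlphaLISA detection; IC50 from 4-parameter fit.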

[4] = test system: VZV; experiment: Viral qPCR assay, VZV in MeWo cells; format: cell-based, varicella zoster virus; conditions: ~72 hrs, read-out: VZV MEWO Cell (IC50)
Experimental: as §1
as §1, with “gene” for “gene and of the cellular control, PPIA (Thermo Fisher Assay ID=Hs04194521_s1),”, “in” for “in separate”, “Compound effects on viral” for “Viral”, “number” for “numbers were normalized by cellular control copy number, and compound effects”
(§2) VZV: Strain Street was maintained as an infected cell stock in MRC-5 cells. It was assayed in MeWo or MRCS cells and was used at 0.04-0.1 pfu/cell. The assays were performed in growth medium. Primer-probe set was Thermo Fisher Assay ID=AIPAEXQ. HSV-1: Strain F Street was assayed in Vero or MRCS cells and was used at 0.0005-0.004 pfu/cell in growth medium. Primer-probe set was Thermo Fisher Assay ID=AIBJZIB

[5] = test system: HCMV Strain AD169; experiment: Viral qPCR assay, HCMV in MRC-5 cells; format: cell-based, Human cytomegalovirus; conditions: read-out: CMV MRC5 Cell (EC50)
How it was run: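 MRC-5 cells infected in suspension with HCMV AD169 (0.05-0.1 pfu/cell) and added to 10-point 3-fold compound dilutions, in growth media or media with 50% FBS. After ~72 h at 37 °C, lysates analysed by TaqMan qPCR against a plasmid standard curve, viral copies normalised to PPIA or not. EC50 from 4-parameter fit.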

[6] = test system: HSV-1 Strain F; experiment: Viral qPCR assay, HSV-1 in Vero cells; format: cell-based, Herpes Simplex Virus type 1; conditions: read-out: HSV1 VERO Cell (EC50)
Experimental: as §1
as §1, with “gene” for “gene and of the cellular control, PPIA (Thermo Fisher Assay ID=Hs04194521_s1),”, “in” for “in separate”, “Compound effects on viral” for “Viral”, “number” for “numbers were normalized by cellular control copy number, and compound effects”
as §2

[7] = test system: VZV; experiment: Viral qPCR assay, VZV in MRC5 cells; format: cell-based, varicella zoster virus; conditions: read-out: VZV MRC5 Cell (IC50)
Experimental: as §1
as §1, with “gene” for “gene and of the cellular control, PPIA (Thermo Fisher Assay ID=Hs04194521_s1),”, “in” for “in separate”, “Compound effects on viral” for “Viral”, “number” for “numbers were normalized by cellular control copy number, and compound effects”
as §2

[8] = test system: HSV-1 Strain F; experiment: Viral qPCR assay, HSV-1 in MRC5 cells; format: cell-based, Herpes Simplex Virus type 1; conditions: read-out: HSV1 MRC5 Cell (EC50)
Experimental: as §1
as §1, with “gene” for “gene and of the cellular control, PPIA (Thermo Fisher Assay ID=Hs04194521_s1),”, “in” for “in separate”, “Compound effects on viral” for “Viral”, “number” for “numbers were normalized by cellular control copy number, and compound effects”
as §2

[9] = test system: HSV2; experiment: Viral qPCR assay, HSV2 in MRC5 cells; format: cell-based, Herpes Simplex Virus type 2; conditions: read-out: HSV2 MRC5 Cell (EC50)
Experimental: as §1
as §1, with “gene” for “gene and of the cellular control, PPIA (Thermo Fisher Assay ID=Hs04194521_s1),”, “in” for “in separate”, “Compound effects on viral” for “Viral”, “number” for “numbers were normalized by cellular control copy number, and compound effects”

[10] = Human alphaherpesvirus 2, Vero, 72 h
[11] = Human betaherpesvirus 5, AD169, MRC5, 72 h
[12] = Human alphaherpesvirus 1, Vero, 72 h
[13] = Human alphaherpesvirus 3, MRC5, 72 h
[14] = Human alphaherpesvirus 1, MRC5, 72 h
[15] = Human alphaherpesvirus 2, MRC5, 72 h

T2 sequence (P08546 whole entry): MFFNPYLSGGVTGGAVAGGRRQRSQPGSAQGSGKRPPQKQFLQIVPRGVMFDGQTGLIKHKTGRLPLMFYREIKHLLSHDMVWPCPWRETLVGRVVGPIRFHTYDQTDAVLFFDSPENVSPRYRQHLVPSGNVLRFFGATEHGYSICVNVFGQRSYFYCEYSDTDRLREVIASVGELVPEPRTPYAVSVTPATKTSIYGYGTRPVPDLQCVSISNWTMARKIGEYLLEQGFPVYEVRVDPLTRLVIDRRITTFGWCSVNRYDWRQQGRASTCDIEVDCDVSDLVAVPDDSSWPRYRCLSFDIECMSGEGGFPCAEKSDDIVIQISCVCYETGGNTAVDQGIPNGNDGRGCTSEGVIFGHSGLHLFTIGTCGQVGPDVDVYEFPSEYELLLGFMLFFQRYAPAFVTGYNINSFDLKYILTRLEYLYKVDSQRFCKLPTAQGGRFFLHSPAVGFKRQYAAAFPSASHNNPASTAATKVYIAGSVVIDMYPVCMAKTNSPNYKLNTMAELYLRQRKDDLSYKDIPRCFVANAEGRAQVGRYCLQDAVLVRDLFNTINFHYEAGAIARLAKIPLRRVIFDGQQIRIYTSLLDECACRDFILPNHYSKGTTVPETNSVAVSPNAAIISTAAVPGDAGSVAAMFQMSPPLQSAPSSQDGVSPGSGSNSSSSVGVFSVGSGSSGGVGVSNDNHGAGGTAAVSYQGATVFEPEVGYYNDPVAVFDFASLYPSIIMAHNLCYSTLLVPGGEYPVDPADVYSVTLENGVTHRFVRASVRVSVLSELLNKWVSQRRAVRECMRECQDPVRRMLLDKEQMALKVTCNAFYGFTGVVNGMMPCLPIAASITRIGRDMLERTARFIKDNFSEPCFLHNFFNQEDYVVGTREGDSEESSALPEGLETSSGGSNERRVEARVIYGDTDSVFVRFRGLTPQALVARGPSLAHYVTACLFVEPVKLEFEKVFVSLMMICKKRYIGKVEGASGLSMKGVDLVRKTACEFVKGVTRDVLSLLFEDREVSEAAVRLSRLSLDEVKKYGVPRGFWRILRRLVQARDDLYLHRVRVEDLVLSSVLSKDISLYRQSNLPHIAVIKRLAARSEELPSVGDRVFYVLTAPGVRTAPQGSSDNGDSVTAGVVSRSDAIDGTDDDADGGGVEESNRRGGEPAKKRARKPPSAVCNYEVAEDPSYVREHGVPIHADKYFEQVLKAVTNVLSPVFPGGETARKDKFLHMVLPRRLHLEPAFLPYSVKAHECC
T1 sequence (P09252 whole entry): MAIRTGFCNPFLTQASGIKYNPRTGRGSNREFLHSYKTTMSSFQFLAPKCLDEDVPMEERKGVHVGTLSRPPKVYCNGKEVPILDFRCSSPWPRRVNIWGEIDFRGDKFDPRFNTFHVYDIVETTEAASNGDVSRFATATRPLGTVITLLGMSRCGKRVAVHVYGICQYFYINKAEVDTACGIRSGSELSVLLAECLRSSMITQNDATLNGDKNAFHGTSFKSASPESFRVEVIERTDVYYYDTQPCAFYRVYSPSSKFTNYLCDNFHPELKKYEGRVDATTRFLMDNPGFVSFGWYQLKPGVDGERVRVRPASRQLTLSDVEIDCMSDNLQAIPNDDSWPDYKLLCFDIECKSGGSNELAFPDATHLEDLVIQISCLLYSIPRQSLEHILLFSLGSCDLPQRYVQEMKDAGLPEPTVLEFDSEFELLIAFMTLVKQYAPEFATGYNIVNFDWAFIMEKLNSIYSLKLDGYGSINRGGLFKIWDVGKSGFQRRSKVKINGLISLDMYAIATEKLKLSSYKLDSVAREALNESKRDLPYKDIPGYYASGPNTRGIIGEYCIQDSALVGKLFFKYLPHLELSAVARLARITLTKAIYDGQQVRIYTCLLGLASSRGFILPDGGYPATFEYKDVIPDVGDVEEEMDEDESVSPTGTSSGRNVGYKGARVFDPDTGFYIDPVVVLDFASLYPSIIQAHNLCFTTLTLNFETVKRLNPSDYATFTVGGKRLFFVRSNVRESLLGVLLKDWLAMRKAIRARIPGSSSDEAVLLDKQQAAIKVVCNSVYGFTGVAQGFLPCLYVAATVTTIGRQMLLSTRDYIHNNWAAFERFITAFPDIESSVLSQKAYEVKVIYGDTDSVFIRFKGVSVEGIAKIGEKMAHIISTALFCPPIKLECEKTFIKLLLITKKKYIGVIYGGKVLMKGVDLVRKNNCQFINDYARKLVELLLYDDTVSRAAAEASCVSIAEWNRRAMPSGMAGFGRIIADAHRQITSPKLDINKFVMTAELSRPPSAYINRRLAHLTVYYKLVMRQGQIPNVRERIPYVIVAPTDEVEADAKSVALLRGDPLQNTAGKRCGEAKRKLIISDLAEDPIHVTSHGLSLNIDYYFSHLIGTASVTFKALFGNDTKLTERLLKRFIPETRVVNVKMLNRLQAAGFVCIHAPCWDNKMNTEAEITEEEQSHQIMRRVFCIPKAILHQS

pIC50 [1]	pEC50 ([2]; ~72 hrs)	pIC50 [3]	pIC50 [4]	pEC50 ([6]; ~72 hrs)	pEC50 [2, 10]	pEC50 [6, 12]	Compound	pEC50 ([5]; MRC5 cells, ~72 hrs)	pEC50 [5, 11]	pIC50 [7, 13]	pEC50 [8, 14]	pEC50 [9, 15]	pIC50 ([7]; ~72 hrs)	pEC50 ([8]; ~72 hrs)	pEC50 ([9]; ~72 hrs)
7.57	4.88	7.03	6.32	5.25	–	–	O=C1CC[C@@H](CN2Cc3c(C(=O)NCc4ccc(Cl)cc4)nn(C4CCC(F)(F)C4)c3C2)N1 (single isomer, unassigned) [Compound 55]	5.57	–	–	–	–	–	–	–
8.25	–	7.85	–	–	6.78	6.42	Cn1nc(C(=O)NCc2ccc(Cl)cc2)c2c1CN(C[C@H]1CCC(=O)N1)C2 [Compound 32]	–	6.38	6.38	6.19	6.30	–	–	–
7.64	6.28	7.16	–	6.67	–	–	O=C1CC[C@@H](CN2Cc3c(C(=O)NCc4ccc(Cl)cc4)nn(C(F)F)c3C2)N1 [Compound 46]	6.15	–	–	–	–	–	–	–
7.31	–	7.15	–	–	5.45	5.86	[2H]C([2H])([2H])n1nc(C(=O)NCc2ccc(Cl)cc2)c2c1CN(C[C@H]1CCC(=O)N1)C2 [Compound 59]	–	6.15	5.28	5.15	5.50	–	–	–
6.72	–	6.46	–	–	4.42	4.51	Cn1nc(C(=O)NCc2ccc(Cl)cc2F)c2c1CN(C[C@H]1CCC(=O)N1)C2 [Compound 61]	–	5.70	–	–	–	–	–	–
7.44	5.80	7.52	–	5.85	–	–	CC(C1CC(F)C(=O)N1)N1Cc2c(C(=O)NCc3ccc(Cl)cc3)nn(C)c2C1 (stereo not drawn) [Compound 76]	5.44	–	–	–	–	–	–	–
6.99	5.64	6.77	–	5.71	–	–	Cn1nc(C(=O)NCc2ccc(Cl)cc2)c2c1CN(C[C@@H]1CC(F)C(=O)N1)C2 (stereo partly drawn) [Compound 80]	5.56	–	–	–	–	5.41	5.40	5.55
7.43	5.63	7.74	–	5.77	–	–	CC(C1CC(F)(F)C(=O)N1)N1Cc2c(C(=O)NCc3ccc(Cl)cc3)nn(C)c2C1 (stereo not drawn) [Compound 86]	6.21	–	–	–	–	–	–	–
8.31	–	8.12	–	–	6.71	6.66	CC(C)[C@H]1c2c(c(C(=O)NCc3ccc(Cl)cc3)nn2C)CN1C[C@@H]1CCC(=O)N1 [Compound 100]	–	6.65	–	–	–	–	–	–
6.80	5.71	6.28	–	5.92	–	–	C[C@@H]1c2c(C(=O)NCc3ccc(Cl)cc3)nn(C)c2CN1C[C@H]1CCC(=O)N1 [Compound 126]	5.21	–	–	–	–	–	–	–
7.93	–	7.77	–	–	5.15	5.14	O=C1CCC(CC2Cc3c(C(=O)NCc4ccc(Cl)cc4)nn(CCN4CC(F)(F)C4)c3C2)N1 (stereo not drawn) [Compound 131]	–	5.80	–	–	–	–	–	–
7.89	–	7.67	–	–	5.03	5.14	O=C1CC[C@H](CC2Cc3c(C(=O)NCc4ccc(Cl)cc4)nn(CCN4CC(F)C4)c3C2)N1 (stereo partly drawn) [Compound 132]	–	5.53	–	–	–	–	–	–
7.71	–	7.07	–	–	5.97	5.79	O=C1CC[C@H](CC2Cc3c(C(=O)NCc4ccc(Cl)cc4)nn(CCN4CCOCC4)c3C2)N1 (stereo partly drawn) [Compound 133]	–	6.09	5.92	5.92	6.25	–	–	–
7.83	6.23	7.06	–	6.00	–	–	CC(C)N1CC(n2nc(C(=O)NCc3ccc(Cl)cc3)c3c2CC(C[C@H]2CCC(=O)N2)C3)C1 (stereo partly drawn) [Compound 134]	6.01	–	–	–	–	6.08	5.93	6.26
7.58	–	7.05	–	–	5.70	5.82	CC(C)CN1CC(n2nc(C(=O)NCc3ccc(Cl)cc3)c3c2CC(C[C@H]2CCC(=O)N2)C3)C1 (stereo partly drawn) [Compound 135]	–	6.11	6.20	6.13	6.23	–	–	–
7.30	–	6.76	–	–	4.25	4.58	CN1CC(n2nc(C(=O)NCc3ccc(Cl)cc3)c3c2CC(C[C@H]2CCC(=O)N2)C3)C1 (stereo partly drawn) [Compound 137]	–	5.11	–	–	–	–	–	–
